From ChEMBL document CHEMBL1135272 (Bioorg Med Chem Lett, 2002)

How the values were obtained:
[1] = test system: A549; assay: Compound was tested for its ability to inhibit tumor necrosis factor alpha (TNF alpha) induced apoptosis in A549 human lung carcinoma cell line; type: functional, cell-based
[2] = test system: A549; assay: Inhibition of NFkB (transcription factor) activation in A549 human lung carcinoma cell line at 20 uM; type: functional
[3] = test system: A549; assay: Compound was tested for its ability to inhibit tumor necrosis factor alpha (TNF alpha) induced apoptosis in A549 human lung carcinoma cell line; NA=Not assayed; type: functional, cell-based
[4] = test system: A549; assay: Inhibition of NFkB (transcription factor) activation in A549 human lung carcinoma cell line; type: functional, cell-based
[5] = test system: A549; assay: (§1) Compound was tested for its ability to inhibit tumor necrosis factor alpha (TNF alpha) induced apoptosis in A549 human lung carcinoma cell line at 20 uM concentration; type: functional, cell-based
[6] = test system: A549; assay: The compound was examined for its ability to block tumor necrosis factor alpha (TNF alpha) induced IL-8 production in A549 human lung carcinoma cell line using an ELISA; type: functional, cell-based
[7] = test system: A549; assay: The compound was tested for its ability to inhibit tumor necrosis factor alpha (TNF alpha) induced apoptosis in A549 human lung carcinoma cell line; type: functional, cell-based
[8] = test system: A549; assay: as §1; type: functional

| SMILES | inhibition at 20 µM [2] | IC50 [4] | inhibition at 20 µM [8] | also measured |
| --- | --- | --- | --- | --- |
| CCCOC(=O)C1C2C(=O)CC(c3ccc(OCC)cc32)C1C(=O)OCC[Si](C)(C)C (centres undefined) | 43% | – | – | IC50 [1]: 10 µM |
| CCCOC(=O)C1C2C(=O)CC(c3ccc(O)cc32)C1C(=O)OCCC[Si](C)(C)C (centres undefined) | – | 40 µM | – | IC50 [3]: Not Active |
| CCCOC(=O)C1C2C(=O)CC(c3ccc(O)cc32)C1C(=O)OCC[Si](C)(C)C (centres undefined) | – | 15 µM | – | IC50 [5]: 3 µM; IC50 [6]: 14 µM |
| C=CCOC(=O)C1C2C(=O)CC(c3ccc(O)cc32)C1C(=O)OCC[Si](C)(C)C (centres undefined) | – | 21 µM | – | IC50 [7]: 5 µM; IC50 [6]: 21 µM |
| C[Si](C)(C)CCOC(=O)C1C2CC(=O)C(c3cc(O)ccc32)C1C(=O)OCCN1CCOCC1 (centres undefined) | 18% | – | 43% | – |
| C=CCNC(=O)C1C2C(=O)CC(c3ccc(O)cc32)C1C(=O)OCC[Si](C)(C)C (centres undefined) | 19% | – | 18% | – |
| CCCOC(=O)C1C2C(=O)CC(c3ccc(OCc4ccccn4)cc32)C1C(=O)OCC[Si](C)(C)C (centres undefined) | 31% | – | 47% | – |
| C=CCOC(=O)NC1C2C(=O)CC(c3ccc(O)cc32)C1C(=O)OCC[Si](C)(C)C (centres undefined) | 34% | – | – | IC50 [1]: 14 µM |
| CCCOC(=O)C1C2C(=O)CC(c3ccccc32)C1C(=O)OCC[Si](C)(C)C (centres undefined) | – | 45 µM | 38% | – |
| C=CCNC(=O)NC1C2C(=O)CC(c3ccc(O)cc32)C1C(=O)OCC[Si](C)(C)C (centres undefined) | 28% | – | 23% | – |
| CCCOC(=O)C1C2C(=O)CC(c3ccc(OCC(=O)O)cc32)C1C(=O)OCC[Si](C)(C)C (centres undefined) | 3% | – | 13% | – |
| CCCOC(=O)C1C2C(=O)CC(c3ccc(O)cc32)C1C(=O)OCCC(C)(C)C (centres undefined) | – | 41 µM | – | IC50 [3]: Not Active |
| CCCOC(=O)C1C2C(=O)CC(c3ccc(OCCc4ccccn4)cc32)C1C(=O)OCC[Si](C)(C)C (centres undefined) | – | 27 µM | – | IC50 [1]: 4 µM |
| C[Si](C)(C)CCOC(=O)C1C2CC(=O)C(c3cc(O)ccc32)C1NC(=O)OCc1ccc(-c2ccccc2)cc1 (centres undefined) | 27% | – | 0% | – |
| C[Si](C)(C)CCOC(=O)C1C2CC(=O)C(c3cc(O)ccc32)C1NC(=O)NCc1cccnc1 (centres undefined) | 30% | – | 11% | – |
| C[Si](C)(C)CCOC(=O)C1C2CC(=O)C(c3cc(O)ccc32)C1C(=O)OCc1cccc(F)c1 (centres undefined) | 13% | – | – | IC50 [7]: 12 µM |
